From patent publication US20060210568A1, “Methods and compositions for cancer treatment” (priority 2003, published 2006)

Key:
[1] = system: ADRP expression in MCF-7 cells; experiment: ADRP expression in MCF-7 cells (RT-PCR); format: cell-based, human; details: for increase of ADRP level over the endogenous level: treatment of cells, depends on length of treatment
Source text: Ciglitazone is known to bind and activate the nuclear receptor PPAR gamma, which has been shown in MCF-7 to stimulate expression of beta casein (Mueller et al., 1998).
It is known that estradiol plays a dual role in mammary epithelial cells as a stimulator of proliferation and also as a differentiation factor at different times of the developmental stages of mammary gland development (Kumar et al, 2000).
A specific siRNA against human ADRP mRNA (hADRP-siRNA) was designed using the sequence between +225 to +244 of human ADRP as a target. A control siRNA was designed using a portion of the green fluorescence protein gene. Twenty-one-oligonucleotide RNA for hADRP (rArUrU rGrCrA rGrUrU rGrCrC rArArU rArCrC rUTT and rArGrG rUrArU rUrGrG rCrArA rCrUrG rCrArA rUTT) with 3′dTdT overhangs, and for GFP (rGrGrC rUrArC rGrUrC rCrArG rGrArG rCrGrC rArCrC and rUrGrC rGrCrU rCrCrU rGrGrA rCrGrU rArGrC rCrUrU) were synthesized (Integrated DNA Technologies, Inc., Coralville, Iowa). Transfection of siRNA duplex was performed in MCF-7 cells using LipofectAMINE 2000 reagents as described by the manufacturer (Invitrogen, Carlsbad, Calif.). MCF-7 EV grown to 50% confluency in 6-well plates were transfected with 100 pmole of siRNA per well in serum free-DMEM/F12. After 5 h, the medium was replaced with DMEM/F12 containing 5% FBS. Control MCF-7 cells were treated with GFP siRNA. The cells were then treated with 50 μM (50 micromolars) ciglitazone. After 48 h of incubation, RNA samples were collected by Trizol method to measure human ADRP expression and beta casein expression by RT-PCR as described above.

[2] = system: EV MCF-7 cells; experiment: proliferation assay, EV MCF-7 control cells; format: cell-based, human; details: estradiol 10^−9 M, insulin 10 microgramsg/ml, EGF 25 ng/ml in medium
Experimental: For proliferation assay, the cells were seeded at a density of 5×10^4 cells in phenol red-free α-MEM (PFME) supplemented with 5% of charcoal extracted fetal bovine serum (CHX-FBS) in 6-well culture plates (Costar). Cells were treated with 1 nM 17β-estradiol alone. Control cells were treated with vehicle alone (0.01% DMSO). Cell numbers were counted by hemacytometer every two days. Medium was changed at day 4. Each time point was performed in triplicate. Specifically, the medium contained estradiol (E2 at 10^−9 M), insulin (10 microgramsg/ml) and epidermal growth factor (EGF at 25 ng/ml).

[3] = system: ADRP overexpressing cells (MCF7-C4); experiment: proliferation assay, ADRP overexpressing MCF-7 cells; format: cell-based, human; details: estradiol 10^−9 M, insulin 10 microgramsg/ml, EGF 25 ng/ml in medium
Experimental: The vector used to over-express ADRP in MCF-7 cells is the ADRP-pcDNA3 vector described in Gao and Serrero, 1999. The G418 resistance gene was used as selectable marker. MCF-7 cells were transfected with the ADRP-pcDNA3 plasmid, using the lipofectamine method. Specifically, MCF-7 cells (WT) were plated onto 60-mm dish at the concentration of 2×10^5 cell per plate in 5% fetal bovine serum (FBS) in DMEM/F12 (1:1 mixture of Dulbecco's modified Eagle's medium and Ham' nutrient F12 medium) overnight before transfection. Cells were washed once with serum-free DMEM/F12 (without antibiotic). The lipofectamine method was used for the transfection. Specifically, 2 μg mouse ADRP pcDNA3 construct was used. Transfection was carried on according to manufacturer's recommendations, with 15 μl of lipofectamine and 5 hours of incubation. After transfection, the medium was replaced with 5% FBS DMEM/F12 and the cells were incubated overnight. G418 at the concentration of 800 μg/ml was added the day after for selection. Cells were selected with this medium for 3 weeks. Six clones were isolated and subjected to RT-PCR to determine the existence of the transfection construct. For proliferation assay, the cells were seeded at a density of 5×10^4 cells in phenol red-free α-MEM (PFME) supplemented with 5% of charcoal extracted fetal bovine serum (CHX-FBS) in 6-well culture plates (Costar). Cells were treated with 1 nM 17β-estradiol alone. Control cells were treated with vehicle alone (0.01% DMSO). Cell numbers were counted by hemacytometer every two days. Medium was changed at day 4. Each time point was performed in triplicate. Specifically, the medium contained estradiol (E2 at 10^−9 M), insulin (10 microgramsg/ml) and epidermal growth factor (EGF at 25 ng/ml).

[4] = system: ADRP expression in adipocytes; details: cited from earlier work

| Compound | increase of ADRP level over the endogenous level [1] | ADRP expression ([1]; MCF-7 cells, FIG. 7) | proliferation of EV MCF-7 cells (control) [2] | proliferation of ADRP overexpressing cells [3] | ADRP expression in adipocytes [4] |
| --- | --- | --- | --- | --- | --- |
| CC1(COc2ccc(CC3SC(=O)NC3=O)cc2)CCCCC1 (centres unmarked) [ciglitazone] | over 10 fold |  |  |  |  |
| C[C@]12CC[C@@H]3c4ccc(O)cc4CC[C@H]3[C@@H]1CC[C@@H]2O [estradiol, 17β-estradiol, reference compound] | 2-3 fold | stimulates ADRP expression | stimulated the proliferation | no effect |  |
| CC(C)Cc1ccc(C(C)C(=O)O)cc1 (centres unmarked) [ibuprofen] |  |  |  |  | stimulated |
| COc1ccc2c(c1)c(CC(=O)O)c(C)n2C(=O)c1ccc(Cl)cc1 [indomethacin] |  |  |  |  | stimulated |
| epidermal growth factor: growth factor known to stimulate the proliferation of mammary epithelial cells |  |  | stimulated the proliferation | no effect |  |
| insulin: hormone known to stimulate the proliferation of mammary epithelial cells |  |  | stimulated the proliferation | no effect |  |
